Reference: patent publication US20210101881A1 (Ancureall Pharmaceutical (Shanghai) Co., Ltd., priority 2018, published 2021)

What follows are compounds tested on MOLM13 cells (assay: Growth inhibition of CDK9-positive cell line MOLM13 in vitro (CCK8/MTT assay)). Conditions: Homo sapiens, MOLM-13, read-out: IC50 of the compound for inhibiting cell growth, MOLM13 cells.
Type: cell-based, human
Protocol: 1. MOLM13 cell line and cell culture MOLM13 is a CDK9-positive human acute myeloid leukemia cell line from DMSZ. Suspension culture was carried out in RPMI1640 (Gibco) medium with 10% fetal bovine serum (Gibco), 1% penicillin-streptomycin and 2 mM glutamine.
Suspended MOLM-13 cells in logarithmic growth phase were collected by centrifugation (1700 rpm, 3 minutes), the supernatant was discarded, and the cells were counted. A solution with a cell concentration of 2×10^5 cells per milliliter was formulated and inoculated in a 96-well plate (Corning) with 100 microliters per well. The plate was incubated at 37° C., 5% CO2 overnight. On the next day, the test compound was added to the cultured cells in two parallel wells. […]
The present compound and the control compounds were respectively dissolved in DMSO (Sigma).
When the solvent control well became dark yellow, the OD450 nm absorption value was measured, and the cell growth rate was calculated according to the following formula. Cell growth rate %=100*(T−T0)/(C−T0), wherein T=the optical density value of the drug-treated well—the optical density value of the blank control well, T0=the optical density value of the well before drug treatment—the optical density value of the blank control well, C=the optical density value of the solvent control well—the optical density value of the blank control well. […] The assay was repeated three times, and the data was subjected to a biological statistical analysis.
Compound `CN1CCN(CCOc2ccc(Nc3nccc(-n4cc(C(N)=O)c5ccccc54)n3)cc2)CC1` [Compound 18, 1-(2-{4-[2-(4-methyl-piperazin-1-yl)-ethoxy]-phenylamino}-pyrimidin-4-yl)-1H-indole-3-carboxamide] has an IC50 of 0.01 to 0.1 µM. Compound `NC(=O)c1cn(-c2ccnc(Nc3ccc(N4CCNCC4)cc3)n2)c2ccccc12` [Compound 27, 1-[2-(4-piperazin-1-yl-phenylamino)-pyrimidin-4-yl]-1H-indole-3-carboxamide] has an IC50 of 0.001 to 0.01 µM.

Same assay, conditions: Homo sapiens, MOLM-13; MOLM13 cells, cultured 3 to 6 days, CCK8; read-out: IC50 of the compound for inhibiting cell growth, MOLM13 cells
For `COc1ccc(Nc2nccc(-n3cc(C(N)=O)c4ccccc43)n2)cc1` [Compound 17, 1-[2-(4-methoxy-phenylamino)-pyrimidin-4-yl]-1H-indole-3-carboxamide], the IC50 was 0.1 to 1 µM. Work on `CN(C)CCOc1ccc(Nc2nccc(-n3cc(C(N)=O)c4ccccc43)n2)cc1` [Compound 19, 1-{2-[4-(2-dimethylamino-ethoxy)-phenylamino]-pyrimidin-4-yl}-1H-indole-3-carboxamide] yielded an IC50 of 0.01 to 0.1 µM. `NC(=O)c1cn(-c2ccnc(Nc3ccc(OCCN4CCCC4)cc3)n2)c2ccccc12` [Compound 20, 1-{2-[4-(2-pyrrolidin-1-yl-ethoxy)-phenylamino]-pyrimidin-4-yl}-1H-indole-3-carboxamide] was tested, and the IC50 was 0.01 to 0.1 µM. Compound `NC(=O)c1cn(-c2ccnc(Nc3ccc(OCCN4CCOCC4)cc3)n2)c2ccccc12` [Compound 21, 1-{2-[4-(2-morpholin-4-yl-ethoxy)-phenylamino]-pyrimidin-4-yl}-1H-indole-3-carboxamide] has an IC50 of 0.01 to 0.1 µM. In the case of `NC(=O)c1cn(-c2ccnc(Nc3ccc(OCCN4CCNCC4)cc3)n2)c2ccccc12` [Compound 22, 1-(2-{4-[2-(4-piperazin-1-yl)-ethoxy]-phenylamino]-pyrimidin-4-yl}-1H-indole-3-carboxamide], the IC50 is reported as 0.01 to 0.1 µM. For `CN(C)CCSc1ccc(Nc2nccc(-n3cc(C(N)=O)c4ccccc43)n2)cc1` [Compound 23, 1-{2-[4-(2-dimethylamino-ethylthio)-phenylamino]-pyrimidin-4-yl}-1H-indole-3-carboxamide], the IC50 was 0.01 to 0.1 µM. `NC(=O)c1cn(-c2ccnc(Nc3ccc(N4CCC(N5CCCCC5)CC4)cc3)n2)c2ccccc12` [Compound 24, 1-[2-(4-[1,4′]bipiperidin-1′-yl-phenylamino)-pyrimidin-4-yl]-1H-indole-3-carboxamide] gave an IC50 of 0.01 to 0.1 µM. In the case of `NC(=O)c1cn(-c2ccnc(Nc3ccc(N4CCN(CCO)CC4)cc3)n2)c2ccccc12` [Compound 25, 1-(2-{4-[4-(2-hydroxy-ethyl)-piperazin-1-yl]-phenylamino}-pyrimidin-4-yl)-1H-indole-3-carboxamide], the IC50 is reported as 0.01 to 0.1 µM. `COCCN1CCN(c2ccc(Nc3nccc(-n4cc(C(N)=O)c5ccccc54)n3)cc2)CC1` [Compound 26, 1-(2-{4-[4-(2-methoxy-ethyl)-piperazin-1-yl]-phenylamino}-pyrimidin-4-yl)-1H-indole-3-carboxamide] gave an IC50 of 0.01 to 0.1 µM. `Cc1cc(Nc2nccc(-n3cc(C(N)=O)c4ccccc43)n2)ccc1N1CCNCC1` [Compound 28, 1-[2-(3-methyl-4-piperazin-1-yl-phenylamino)-pyrimidin-4-yl]-1H-indole-3-carboxamide] was tested, and the IC50 was 0.001 to 0.01 µM. With `NC(=O)c1cn(-c2ccnc(Nc3ccc(N4CCNCC4)cc3)n2)c2cccc(F)c12` [Compound 29, 4-fluoro-1-[2-(4-piperazin-1-yl-phenylamino)-pyrimidin-4-yl]-1H-indole-3-carboxamide] the IC50 was 0.01 to 0.1 µM. With `NC(=O)c1cn(-c2ccnc(Nc3ccc(N4CCNCC4)cc3)n2)c2cc(F)ccc12` [Compound 30, 6-fluoro-1-[2-(4-piperazin-1-yl-phenylamino)-pyrimidin-4-yl]-1H-indole-3-carboxamide] the IC50 was 0.001 to 0.01 µM. Work on `NC(=O)c1cn(-c2ccnc(Nc3ccc(N4CCNCC4)cc3)n2)c2c(F)cccc12` [Compound 31, 7-fluoro-1-[2-(4-piperazin-1-yl-phenylamino)-pyrimidin-4-yl]-1H-indole-3-carboxamide] yielded an IC50 of 0.01 to 0.1 µM. Work on `NC(=O)c1cn(-c2ccnc(Nc3ccc(N4CCNCC4)cc3)n2)c2ccc(Br)cc12` [Compound 32, 5-bromo-1-[2-(4-piperazin-1-yl-phenylamino)-pyrimidin-4-yl]-1H-indole-3-carboxamide] yielded an IC50 of 0.01 to 0.1 µM. For `COc1ccc2c(c1)c(C(N)=O)cn2-c1ccnc(Nc2ccc(N3CCNCC3)cc2)n1` [Compound 33, 5-methoxy-1-[2-(4-piperazin-1-yl-phenylamino)-pyrimidin-4-yl]-1H-indole-3-carboxamide], the IC50 was 0.001 to 0.01 µM. In the case of `NC(=O)c1cn(-c2nc(Nc3ccc(N4CCNCC4)cc3)ncc2Cl)c2ccccc12` [Compound 34, 1-[5-chloro-2-(4-piperazin-1-yl-phenylamino)-pyrimidin-4-yl]-1H-indole-3-carboxamide], the IC50 is reported as < 0.001 µM. For `NC(=O)c1cn(-c2nc(Nc3ccc(N4CCNCC4)cc3)ncc2F)c2ccccc12` [Compound 35, 1-[5-fluoro-2-(4-piperazin-1-yl-phenylamino)-pyrimidin-4-yl]-1H-indole-3-carboxamide], the IC50 was < 0.001 µM. Work on `COc1cnc(Nc2ccc(N3CCNCC3)cc2)nc1-n1cc(C(N)=O)c2ccccc21` [Compound 36, 1-[5-methoxy-2-(4-piperazin-1-yl-phenylamino)-pyrimidin-4-yl]-1H-indole-3-carboxamide] yielded an IC50 of 0.001 to 0.01 µM. `Cc1cnc(Nc2ccc(N3CCNCC3)cc2)nc1-n1cc(C(N)=O)c2ccccc21` [Compound 37, 1-[5-methyl-2-(4-piperazin-1-yl-phenylamino)-pyrimidin-4-yl]-1H-indole-3-carboxamide] was tested, and the IC50 was 0.001 to 0.01 µM. `Cc1cc(-n2cc(C(N)=O)c3ccccc32)nc(Nc2ccc(N3CCNCC3)cc2)n1` [Compound 38, 1-[6-methyl-2-(4-piperazin-1-yl-phenylamino)-pyrimidin-4-yl]-1H-indole-3-carboxamide] gave an IC50 of 0.1 to 1 µM. `COc1cc(Nc2ncc(F)c(-n3cc(C(N)=O)c4ccccc43)n2)ccc1N1CCNCC1` [Compound 40, 1-[5-fluoro-2-(3-methoxy-4-piperazin-1-yl-phenylamino)-pyrimidin-4-yl]-1H-indole-3-carboxamide] was tested, and the IC50 was < 0.001 µM. Compound `NC(=O)c1cn(-c2nc(Nc3ccc(N4CCNCC4)c(F)c3)ncc2F)c2ccccc12` [Compound 41, 1-[5-fluoro-2-(3-fluoro-4-piperazin-1-yl-phenylamino)-pyrimidin-4-yl]-1H-indole-3-carboxamide] has an IC50 of 0.001 to 0.01 µM. With `COc1cc(Nc2ncc(Cl)c(-n3cc(C(N)=O)c4ccccc43)n2)ccc1N1CCNCC1` [Compound 43, 1-[5-chloro-2-(3-methoxy-4-piperazin-1-yl-phenylamino)-pyrimidin-4-yl]-1H-indole-3-carboxamide] the IC50 was < 0.001 µM. With `NC(=O)c1cn(-c2nc(Nc3ccc(N4CCNCC4)c(F)c3)ncc2Cl)c2ccccc12` [Compound 44, 1-[5-chloro-2-(3-fluoro-4-piperazin-1-yl-phenylamino)-pyrimidin-4-yl]-1H-indole-3-carboxamide] the IC50 was 0.001 to 0.01 µM. Compound `CN1CCN(c2ccc(Nc3nccc(-n4cc(C(N)=O)c5ccccc54)n3)cc2)CC1` [Compound 45, 1-{2-[4-(4-methyl-piperazin-1-yl)-phenylamino]-pyrimidin-4-yl}-1H-indole-3-carboxamide] has an IC50 of 0.01 to 0.1 µM. `CN1CCN(c2ccc(Nc3nccc(-n4cc(C(N)=O)c5ccccc54)n3)cc2F)CC1` [Compound 46, 1-{2-[3-fluoro-4-(4-methyl-piperazin-1-yl)-phenylamino]-pyrimidin-4-yl}-1H-indole-3-carboxamide] gave an IC50 of 0.001 to 0.01 µM. Compound `CN1CCN(c2c(F)cc(Nc3nccc(-n4cc(C(N)=O)c5ccccc54)n3)cc2F)CC1` [Compound 47, 1-{2-[3,5-difluoro-4-(4-methyl-piperazin-1-yl)-phenylamino]-pyrimidin-4-yl}-1H-indole-3-carboxamide] has an IC50 of 0.01 to 0.1 µM. For `COc1cc(Nc2nccc(-n3cc(C(N)=O)c4ccccc43)n2)ccc1N1CCN(C)CC1` [Compound 48, 1-{2-[3-methoxy-4-(4-methyl-piperazin-1-yl)-phenylamino]-pyrimidin-4-yl}-1H-indole-3-carboxamide], the IC50 was 0.01 to 0.1 µM. Compound `CN1CCN(c2ccc(Nc3nccc(-n4cc(C(N)=O)c5ccccc54)n3)cc2C#N)CC1` [Compound 49, 1-{2-[3-cyano-4-(4-methyl-piperazin-1-yl)-phenylamino]-pyrimidin-4-yl}-1H-indole-3-carboxamide] has an IC50 of 0.001 to 0.01 µM. `Cc1cc(Nc2nccc(-n3cc(C(N)=O)c4ccccc43)n2)ccc1N1CCN(C)CC1` [Compound 50, 1-{2-[3-methyl-4-(4-methyl-piperazin-1-yl)-phenylamino]-pyrimidin-4-yl}-1H-indole-3-carboxamide] showed an IC50 of 0.001 to 0.01 µM. In the case of `Cc1cc(Nc2nccc(-n3cc(C(N)=O)c4ccccc43)n2)ccc1N1CCN(C(C)C)CC1` [Compound 51, 1-{2-[4-(4-isopropyl-piperazin-1-yl)-3-methyl-phenylamino]-pyrimidin-4-yl}-1H-indole-3-carboxamide], the IC50 is reported as 0.001 to 0.01 µM. For `CN1CCN(c2ccc(Nc3ncc(F)c(-n4cc(C(N)=O)c5ccccc54)n3)cc2)CC1` [Compound 52, 1-{5-fluoro-2-[4-(4-methyl-piperazin-1-yl)-phenylamino]-pyrimidin-4-yl}-1H-indole-3-carboxamide], the IC50 was 0.001 to 0.01 µM. With `CN1CCN(c2ccc(Nc3ncc(Cl)c(-n4cc(C(N)=O)c5ccccc54)n3)cc2)CC1` [Compound 53, 1-{5-chloro-2-[4-(4-methyl-piperazin-1-yl)-phenylamino]-pyrimidin-4-yl}-1H-indole-3-carboxamide] the IC50 was 0.001 to 0.01 µM.
